# Results as given in patent publication US9388405B2, “Method for identifying a subpopulation of mammalian cells with distinctive ribosome translation profiles” (priority 2009, dated 2016).
# Peptide text beside a SMILES is read from it. * marks the point of attachment. Cbz = O=C(OCc1ccccc1)*
# Columns and labels:
# [1] = test system: Class III HCT116 mTRdm-fLUC 7-5 and 12-16 cell lines; assay: Western blot of fLUC protein in 15-Assay cell extracts; assay type: cell-based, human
# Protocol: The remaining cell suspension was centrifuged as described above and the pellets stored at −70/−80° C. for subsequent protein extraction and Western blot analysis. For protein extraction, cells were thawed on ice and resuspended in equal volumes of the Suspension Buffer (100 mM NaCl, 10 mM TrisHCl [pH 7.6], 1 mM EDTA, 1 mg/mL aprotinin, 100 μg/mL PMSF) and the 2×SDS Buffer (100 mM TrisHCl (pH6.8), 4% SDS, 20% glycerol, 20 mM DTT, 10 mM EDTA, 2× Roche Protease Inhibitor Cocktail). The extracts were homogenized by vigorous mixing and boiling for 3 min. Additional homogenization (when needed) was achieved by passing samples through a syringe fitted with a 26 G needle. At this point, the extracts were either analyzed by SDS-PAGE gel or stored at −80° C.
# To produce a near quantitative Western blot analysis, equal protein concentrations are loaded on Western blots. […] The fLUC protein was detected using an anti-fLUC primary antibody (Sigma; 1:1000 dilution). After incubation with a primary antibody and extensive washing with 1×PBS-T, proteins binding the primary antibody were detected by incubation with a horseradish peroxidase (HRP) conjugated anti-rabbit secondary antibody (Amersham; 1:10000 dilution). Following incubation with the secondary antibody and extensive washing, reactive proteins were detected with the ECL reagent system (Amersham) as described by the vendor. […]
# HCT116 mTRdm-fLUC cells = assay: 5-Assay / 15-Assay toxin assays, fLUC plate reader (Fold Induction); assay type: cell-based, human; conditions: 5-Assay, 6 hr, HCT116 mTRdm-fLUC 12-16 subclone #38
# Protocol: The 5-Assay and 15-Assay procedures were applied to cellular pools using either of two growth procedures (e.g. a Cell Count or Confluence growth assay). For a Cell Count assay, cells from the P1 pool dish were counted and passed into a white clear bottom 96-well microtiter tray at a density of 25,000 cells per well; the leftover cells were passed into a passage 2 (P2) dish. Cells in the microtiter plate were allowed to grow for about 40 hr to achieve a ˜75% cell confluence prior to incubation with a toxic agent. Then cells in a microtiter plate were treated with complete growth medium containing either no toxin or an optimal toxin, defined as a single or multiple toxin assay that produces a maximal translational response (taken from Table 3) and incubated for 6 hours at 37° C. Each treatment was performed on triplicate wells.
# After toxin incubation, cells were examined by phase contrast microscopy for signs of detachment. If more than ˜10% of cells were detached, the 96-well plates were centrifuged at 1200 rpm for 3 min to pellet the detached cells. The media were removed and replaced with 50 μL of Cell Lysis Buffer (25 mM Tris-phosphate (pH7.8), 10% glycerol, 1% Triton X-100, 1 mg/ml BSA, 2 mM EGTA and 2 mM DTT). Cells were incubated with the Cell Lysis Buffer for 10 min at RT and cell lysis was verified using a phase contrast microscope. To ensure complete lysis, the lysates were vigorously agitated using the multichannel pipettor. Any air bubbles formed as a result of agitation were manually removed with a syringe needle. Luminescence was measured using the FLUOstar Optima (BMG Labtech) microplate reader. To develop luminescence, wells were injected with 5 μL of the D-luciferin solution dissolved in Reaction Buffer (25 mM Glycylglycine (pH 7.8), 15 mM MgSO4, 4 mM EDTA, 15 mM Potassium phosphate, 1 mM DTT, 1 mM Coenzyme A, 6.7 mM ATP and 3.35 mM D-luciferin). After 4 sec with shaking, luminescence values were measured using the lens filter at gains of 2500-4000.
# Light values were converted to Fold Induction using the ratio of values produced by treated and untreated cells. The maximal TR-specific translational response produced by the 5-Toxin or 15-Toxin assay was used to assign an optimal toxin assay (maximal translational response) which was subsequently used to screen subclones derived from this pool and to assign a Class designation. […]
# In one test, the 5-Assay procedure (Table 3) was applied to HCT116 mTRdm-fLUC 12-16 subclone #30 cells (FIG. 1A). […] Samples were then processed with Lysis buffer and read in a plate reader. […]
# Triplicate samples of HCT116 mTRdm-fLUC 12-16 Sub#30 cells were cultured with the two-Toxin assays using a standard plate reader protocol (FIG. 1C). […]
# [2] = test system: HEK293 hTRdm-fLuc #53 and HEK293 mTRdm-fLuc #12 subclones; assay: Microtubule disruptor single-Toxin dose response, cap-independent; assay type: cell-based, human; conditions: cap-dependent and cap-independent assays
# Protocol: The plate reader values were averaged and expressed as the ratio of treated to untreated samples (Fold Induction). Highly similar TR expression profile were produced by the human (hTRdm, top panel) and the mouse (mTRdm, bottom panel) TR cassettes. […] In contrast, significant increases in reporter activity were only observed at nocodazole concentrations greater than 250 nM. As in the cap-dependent assay, taxol-specific reporter increases were only observed at the 2.5 uM and 5 uM doses.
# Highly similar cap-independent translational profiles were produced by each TR-expressing cell line (FIGS. 29B and C). […] This contrasted with the nocodazole responses, where significant increases were observed only at concentrations larger than 250 nM. As before, taxol-specific translational increases were only observed at the 2.5 uM and 5 uM doses.
# [3] = test system: HEK293 CMV-fLuc subclone #3; assay: Updated 15-Assay / 21-Assay, cap-dependent translational responses; assay type: cell-based, human; conditions: 21-Assay, single-Toxin (Unknown), 6 hr
# Excerpt: (§1) The dashed line represents the level of translational response in the untreated samples.
# Following 6 hr exposure to the compounds, cells were lysed and fLuc protein activity measured using a standard microplate reader assay. The triplicate plate reader values were averaged and expressed as the ratio of treated to untreated samples (Fold Induction). The dashed line represents the level of translational response in the untreated samples.
# (§2) The 21-Assay procedure employs the same standard toxins as the Updated 15-Assay protocol. The extra 6 assays involve an unknown or an uncharacterized compound and its pairwise combinations with the five toxins: Unknown, Unknown+TPA, Unknown+Colchcine, Unknown+Bortezomib (Velcade), Unknown+Low dose Calon, and Unknown+Hycamtin (Topotecan).
# Application of single-Toxin and two-Toxin assays in the Updated 15-Assay protocol was used to define cap-dependent translational responses in the HEK293 CMV-fLuc #3 subclone (FIG. 30A).
# The combinatorial process described in this example provides a system for testing translational regulation by unknown compounds. In this example, a 21-Assay setup is described that employs the single and pairwise combinatorial application of 5 toxins, as in a standard 15-Toxin assay, and the addition of a sixth substance. Inclusion of the sixth substance requires the expansion of the assay group to a total of 21 single- and two-Toxin assays. For this example, a control substance (taxol) was selected from the original 15-Assay system.
# [4] = test system: HEK293 mTRdm-fLuc subclone #13 and HEK293 hTRdm-gLuc subclone #79; assay: Updated 15-Assay / 21-Assay, TR translational responses (fLuc, gLuc); assay type: cell-based, human; conditions: 21-Assay, subclone #13, taxol as Unknown
# Protocol: as §1
# As before, secreted Gaussia Luciferase (gLUC) activity was measured in conditioned media 6 hr after drug application and protein activity expressed as the ratio of treated to untreated samples (Fold Induction). The dashed line represents the translational response in untreated cells.
# The dashed line represents the translational response produced by untreated cell samples.
# Following a 6 hr culture time, secreted gLuc activity was measured in conditioned media using a standard microplate reader assay and expressed as the ratio of treated to untreated samples (Fold Induction). The dashed line represents the level of translational response in the untreated samples. Given that the gLuc protein is secreted into the media, it escapes the cytoplasmic protein turnover processes acting on the fLUC protein. Therefore, any difference in the apparent TR response is a likely result of variation in reporter protein synthesis, secretion or reduced protein turnover.
# as §2, with “(Topotecan). […]” for “(Topotecan).”
# [5] = test system: MCF7 CMV-fLuc subclones #44 and #48; assay: PKC activator dose response, cap-dependent translation (fLuc); assay type: cell-based, human
# Protocol: Following 6 hr exposure to the Single-Toxin TPA assay, cells were lysed and fLuc protein activity measured using a standard microplate reader assay. The raw values were averaged and expressed as the ratio of treated to untreated samples (Fold Induction).
# Dashed lines represent translational response levels produced by a 100 nM TPA Single-Toxin assay. The Bryostatin 1 concentrations (top panel) encompassed the TPA concentrations used in FIG. 27A. […] The Bryostatin 2 dose response curve (bottom panel) employed higher drug concentrations (the maximal tested dose was 5× the largest TPA and Bryostatin 1 amounts). At the highest tested dose (2.5 uM), Bryostatin 2 produced fLuc activity consistent with the level observed with 100 nM TPA.
# In addition to measuring cap-dependent and cap-independent translational effects, Class-specific translational activity and toxin-defined actions, the previously described materials and methods allow for a variety of applications designed to detect and characterize agents and processes that regulate ribosome activity. In this example, comparative dose response assays were used to detect cap-dependent and cap-independent translational regulation in MCF7 cells. The basis for this application was the observation that distinct translational responses are produced by compounds at different doses. When an assortment of compounds act on a common molecular target, they can be grouped into a genus of related drugs. By comparing individual species of a compound genus over a defined dose range, differences in translational regulation can be defined. Furthermore, these translational differences can often be linked to biological differences.
# In this example (FIG. 27), the three PKC activators produced similar dose response trends in cap-dependent assays. […] However, macrolide lactones produced translational increases that were generally 60-70% of the TPA translational response (FIG. 27B). In fact, a 25 fold increase in Bryostatin 2 concentration (2.5 uM) was needed to produce a translational magnitude similar to the 100 nM TPA assay (FIG. 27B).
# [6] = test system: MCF7 mTRdm-fLuc subclones #8, #27, and #45; assay: PKC activator dose response, cap-independent TR translation (fLuc); assay type: cell-based, human
# Protocol: Following 6 hr culture with a TPA single-Toxin assay, cells were lysed and fLuc protein activity measured using a standard microplate reader assay. The plate reader values were averaged and expressed as the ratio of treated to untreated samples (Fold Induction).
# As with FIG. 27B, dashed lines represent translational response levels achieved by the 100 nM TPA assay in each cell line. […] A further difference between the cap-dependent and cap-independent assays was the observation that increased Bryostatin 2 concentrations (5× the maximal TPA dose) never produced fLUC activity equivalent to the 100 nM TPA assay. Thus, the Toxin Assay procedure can detect a statistically significant difference in cap-dependent and cap-independent translation in compounds that activate PKC activity.
# In the cap-independent assays, a similar dose response trend was observed over a 1 nM to 250 nM range with a translational peak at a 100 nM dose. However, the magnitude of the Bryostatin increases were generally 30% of 100 nM TPA response.
# Protein Kinase C (PKC) = conditions: cited from earlier work
molecule,measurement,setting,value
"CC(C)C[C@@H](C=O)NC(=O)[C@H](CC(C)C)NC(=O)[C@H](CC(C)C)NC(=O)OCc1ccccc1 [MG132, Z-Leu-Leu-Leu-aldehyde] (Cbz-Leu-Leu-Leu-aldehyde)",fLUC protein levels by Western blot,"[1]; HCT116 mTRdm-fLUC 7-5, 15-Assay",significant fLUC protein levels
same,fLUC protein levels by Western blot,"[1]; HCT116 mTRdm-fLUC 12-16, 15-Assay, 6 hrs",extremely high protein levels
"CC(=O)O[C@H]1C(=O)[C@@]2(C)[C@H]([C@H](OC(=O)c3ccccc3)[C@]3(O)C[C@H](OC(=O)[C@H](O)[C@@H](NC(=O)c4ccccc4)c4ccccc4)C(C)=C1C3(C)C)[C@]1(OC(C)=O)CO[C@@H]1C[C@@H]2O [Taxol, Paclitaxel]",TR-specific toxin response,HCT116 mTRdm-fLUC cells,Maximal TR-specific toxin responses
same,response profile compared with other microtubule disruptor drugs,[2],smallest response profile of all the microtubule disruptor drugs tested
same,effect on cap-dependent fLuc protein production,[3],minimal effect on cap-dependent fluc protein production
same,effect on fLUC activity,[4],"small synergistic increases in fLUC activity in the single-Toxin and the colchicine+taxol, calcimycin+taxol, bortezomib+taxol two-Toxin assays, but not in the TPA+taxol or topotecan+taxol assays"
Bryostatin 2,fold increase in concentration needed for translational magnitude similar to the 100 nM TPA assay,[5],25 fold
same,dose producing fLuc activity consistent with the level observed with 100 nM TPA,"[5]; single-Toxin, highest tested dose",2.5 µM
same,% of the 100 nM TPA response,[6]; dose 2.5 uM,~50%
same,magnitude of translational response versus 100 nM TPA tests,[6]; single-Toxin,never reached the fLuc activity produced in 100 nM TPA tests
same,inhibition constant (Ki) relative to the Ki of Bryostatin 1,Protein Kinase C (PKC),10 ×
